From ChEMBL document CHEMBL3885861, “Open TG-GATES”

Species: Rattus norvegicus
Experiment: Open TG-GATES - Regimen: Daily Repeat
Type: toxicity, organism-based, Sprague-Dawley
Design: regimen Daily Repeat, gender Male, age 6 weeks
Conditions: in vivo, po, 1000 mg/kg, route gavage, dose level High; for APTT / Bas / Eos / Fbg / Hb / Ht / Lym / MCH / MCHC / MCV / Mono / Neu / PT / Plat / RBC / Ret / WBC: tissue Blood; for KIDNEY_L / KIDNEY_R / KIDNEY_TOTAL: tissue Kidney; for LIVER: tissue Liver; for A/G / ALP / ALT / AST / BUN / CRE / Ca / Cl / DBIL / GLC / IP / K / LDH / Na / PL / RALB / TBIL / TC / TG / TP / gamma-GTP: tissue Plasma

CC[C@@H](CO)NCCN[C@@H](CC)CO [ETHAMBUTOL]
TERMINAL_BW (72 h, time 3 day): 233.6 g | APTT (72 h, time 3 day): 19.9 s | Bas (72 h, time 3 day): 0% | Eos (72 h, time 3 day): 0.8% | Fbg (72 h, time 3 day): 303.8 mg/dL | Hb (72 h, time 3 day): 13.5 g/dL | Ht (72 h, time 3 day): 38.6% | Lym (72 h, time 3 day): 77.8% | MCH (72 h, time 3 day): 21.4 pg | MCHC (72 h, time 3 day): 35% | MCV (72 h, time 3 day): 61 fL | Mono (72 h, time 3 day): 3.2% | Neu (72 h, time 3 day): 16.6% | PT (72 h, time 3 day): 16.3 s | Plat (72 h, time 3 day): 122.5 x10_4/uL | RBC (72 h, time 3 day): 633.2 x10_4/ul | Ret (72 h, time 3 day): 4.8% | WBC (72 h, time 3 day): 84.1 x10_2/uL | KIDNEY_L (72 h, time 3 day): 1 g | KIDNEY_R (72 h, time 3 day): 1.1 g | KIDNEY_TOTAL (72 h, time 3 day): 2.1 g | LIVER (72 h, time 3 day): 12.7 g | A/G (72 h, time 3 day): 1.2 | ALP (72 h, time 3 day): 1656 IU/L | ALT (72 h, time 3 day): 49 IU/L | AST (72 h, time 3 day): 88.2 IU/L | BUN (72 h, time 3 day): 21 mg/dL | CRE (72 h, time 3 day): 0.2 mg/dL | Ca (72 h, time 3 day): 10.6 mg/dL | Cl (72 h, time 3 day): 108 meq/L | DBIL (72 h, time 3 day): 0.002 mg/dL | GLC (72 h, time 3 day): 177.8 mg/dL | IP (72 h, time 3 day): 8.1 mg/dL | K (72 h, time 3 day): 4 meq/L | LDH (72 h, time 3 day): 160.8 IU/L | Na (72 h, time 3 day): 140 meq/L | PL (72 h, time 3 day): 163.8 mg/dL | RALB (72 h, time 3 day): 3 g/dL | TBIL (72 h, time 3 day): 0.026 mg/dL | TC (72 h, time 3 day): 99.6 mg/dL | TG (72 h, time 3 day): 41.2 mg/dL | TP (72 h, time 3 day): 5.5 g/dL | gamma-GTP (72 h, time 3 day): 1.6 IU/L | TERMINAL_BW ([…], time 7 day): 220.6 g | TERMINAL_BW ([…], time 14 day): 208.8 g | TERMINAL_BW ([…], time 28 day): 151.9 g | APTT ([…], time 7 day): 19.7 s | Bas ([…], time 7 day): 0% | Eos ([…], time 7 day): 0.8% | Fbg ([…], time 7 day): 167.4 mg/dL | Hb ([…], time 7 day): 16.1 g/dL | Ht ([…], time 7 day): 46.3% | Lym ([…], time 7 day): 73.8% | MCH ([…], time 7 day): 20.8 pg | MCHC ([…], time 7 day): 34.7% | MCV ([…], time 7 day): 59.8 fL | Mono ([…], time 7 day): 3.4% | Neu ([…], time 7 day): 19.4% | PT ([…], time 7 day): 19.6 s | Plat ([…], time 7 day): 116.6 x10_4/uL | RBC ([…], time 7 day): 774.8 x10_4/ul | Ret ([…], time 7 day): 2% | WBC ([…], time 7 day): 71 x10_2/uL | APTT ([…], time 14 day): 21.5 s | Bas ([…], time 14 day): 0% | Eos ([…], time 14 day): 1.2% | Fbg ([…], time 14 day): 228 mg/dL | Hb ([…], time 14 day): 15.5 g/dL | Ht ([…], time 14 day): 44.6% | Lym ([…], time 14 day): 83.2% | MCH ([…], time 14 day): 19.4 pg | MCHC ([…], time 14 day): 34.8% | MCV ([…], time 14 day): 55.6 fL | Mono ([…], time 14 day): 2.2% | Neu ([…], time 14 day): 12.4% | PT ([…], time 14 day): 18.1 s | Plat ([…], time 14 day): 126 x10_4/uL | RBC ([…], time 14 day): 800.4 x10_4/ul | Ret ([…], time 14 day): 0.5% | WBC ([…], time 14 day): 95.8 x10_2/uL | APTT ([…], time 28 day): 27.6 s | Bas ([…], time 28 day): 0% | Eos ([…], time 28 day): 0.3% | Fbg ([…], time 28 day): 252 mg/dL | Hb ([…], time 28 day): 17.2 g/dL | Ht ([…], time 28 day): 49.9% | Lym ([…], time 28 day): 41.3% | MCH ([…], time 28 day): 18 pg | MCHC ([…], time 28 day): 34.6% | MCV ([…], time 28 day): 52 fL | Mono ([…], time 28 day): 8.3% | Neu ([…], time 28 day): 46.7% | PT ([…], time 28 day): 19.9 s | Plat ([…], time 28 day): 105.7 x10_4/uL | RBC ([…], time 28 day): 960 x10_4/ul | Ret ([…], time 28 day): 0.7% | WBC ([…], time 28 day): 102.9 x10_2/uL | KIDNEY_L ([…], time 7 day): 1 g | KIDNEY_R ([…], time 7 day): 1.1 g | KIDNEY_TOTAL ([…], time 7 day): 2.1 g | KIDNEY_L ([…], time 14 day): 1 g | KIDNEY_R ([…], time 14 day): 1 g | KIDNEY_TOTAL ([…], time 14 day): 2 g | KIDNEY_L ([…], time 28 day): 0.9 g | KIDNEY_R ([…], time 28 day): 0.9 g | KIDNEY_TOTAL ([…], time 28 day): 1.8 g | LIVER ([…], time 7 day): 10.6 g | LIVER ([…], time 14 day): 9.2 g | LIVER ([…], time 28 day): 6.7 g | A/G ([…], time 7 day): 1.2 | ALP ([…], time 7 day): 1664.8 IU/L | ALT ([…], time 7 day): 76.6 IU/L | AST ([…], time 7 day): 165.4 IU/L | BUN ([…], time 7 day): 22.2 mg/dL | CRE ([…], time 7 day): 0.2 mg/dL | Ca ([…], time 7 day): 9.3 mg/dL | Cl ([…], time 7 day): 107.4 meq/L | DBIL ([…], time 7 day): 0.3 mg/dL | GLC ([…], time 7 day): 145.2 mg/dL | IP ([…], time 7 day): 8.3 mg/dL | K ([…], time 7 day): 4.6 meq/L | LDH ([…], time 7 day): 334 IU/L | Na ([…], time 7 day): 138.8 meq/L | PL ([…], time 7 day): 108 mg/dL | RALB ([…], time 7 day): 2.4 g/dL | TBIL ([…], time 7 day): 0.3 mg/dL | TC ([…], time 7 day): 59.6 mg/dL | TG ([…], time 7 day): 15.6 mg/dL | TP ([…], time 7 day): 4.3 g/dL | gamma-GTP ([…], time 7 day): 1.4 IU/L | A/G ([…], time 14 day): 1.1 | ALP ([…], time 14 day): 1208.4 IU/L | ALT ([…], time 14 day): 53 IU/L | AST ([…], time 14 day): 108.6 IU/L | BUN ([…], time 14 day): 21.8 mg/dL | CRE ([…], time 14 day): 0.2 mg/dL | Ca ([…], time 14 day): 9.4 mg/dL | Cl ([…], time 14 day): 108.6 meq/L | DBIL ([…], time 14 day): 0.068 mg/dL | GLC ([…], time 14 day): 155.2 mg/dL | IP ([…], time 14 day): 6.8 mg/dL | K ([…], time 14 day): 4.1 meq/L | LDH ([…], time 14 day): 178.8 IU/L | Na ([…], time 14 day): 139.4 meq/L | PL ([…], time 14 day): 112.6 mg/dL | RALB ([…], time 14 day): 2.4 g/dL | TBIL ([…], time 14 day): 0.08 mg/dL | TC ([…], time 14 day): 61.6 mg/dL | TG ([…], time 14 day): 19 mg/dL | TP ([…], time 14 day): 4.6 g/dL | gamma-GTP ([…], time 14 day): 3.6 IU/L | A/G ([…], time 28 day): 1.1 | ALP ([…], time 28 day): 564 IU/L | ALT ([…], time 28 day): 45.3 IU/L | AST ([…], time 28 day): 342 IU/L | BUN ([…], time 28 day): 34 mg/dL | CRE ([…], time 28 day): 0.2 mg/dL | Ca ([…], time 28 day): 9.8 mg/dL | Cl ([…], time 28 day): 116.7 meq/L | DBIL ([…], time 28 day): 0.1 mg/dL | GLC ([…], time 28 day): 321.7 mg/dL | IP ([…], time 28 day): 10.9 mg/dL | K ([…], time 28 day): 4.3 meq/L | LDH ([…], time 28 day): 600.7 IU/L | Na ([…], time 28 day): 148 meq/L | PL ([…], time 28 day): 102 mg/dL | RALB ([…], time 28 day): 2.9 g/dL | TBIL ([…], time 28 day): 0.2 mg/dL | TC ([…], time 28 day): 60 mg/dL | TG ([…], time 28 day): 22.3 mg/dL | TP ([…], time 28 day): 5.5 g/dL | gamma-GTP ([…], time 28 day): 5.7 IU/L
